Test results from patent publication US11339171B2, “MDM2 inhibitors” (Gan & Lee Pharmaceuticals, priority 2017, dated 2022).
Values joined by “and” are separate entries in the source; they are usually repeats but may differ in a detail not shown here. Equal values may be shown once. Read-outs that look alike come from different tables or passages of the source.

Tests used:
MDM2 = molecular target: T1, MDM2 (Homo sapiens, UniProt Q00987); experiment: Inhibition test of MDM2-P53 (GST-MDM2, Biotin-P53, Anti-GST-Tb, SA-XL665); assay type: binding
T1 construct: made in house
How it was run: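 Binding was measured by TR-FRET with GST-MDM2 at 4 nM final in PBS with 0.1% BSA, 5 mM DTT and 1 mM AEBSF. Compounds were tested as twelve-point 5-fold dilutions and incubated with the detection mix for 90 min at 25 °C with shaking before plate-reader reading and curve fitting.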

[1] = Pharmacokinetics in ICR mice after intravenous and intragastric administration; assay type: in vivo; settings: for F*: PO 5 mg/kg vs IV 2 mg/kg, mean; for MRT last: read-out: MRT(0-t); for MRT inf: read-out: MRT(0-∞); for Vd: read-out: Vz
How it was run: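 Single-dose mouse PK study: i.v. 2 mg/kg and intragastric 5 mg/kg to fasted male ICR mice, three animals per arm. Exposure and disposition parameters (Cmax, Tmax, AUC, t1/2, F, CL, Vz) came from LC-MS/MS plasma levels.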

[2] = system: human osteosarcoma cell line SJSA-1; experiment: Inhibition of proliferation of human osteosarcoma cell line SJSA-1 (DAPI staining, In Cell Analyzer); settings: Homo sapiens, SJSA-1, 72 h, read-out: IC50 (nM), inhibitory activity on proliferation of human osteosarcoma cell line SJSA-1, SJSA-1, incubated 72 h
[3] = ICR mice, IV 2 mg/kg, individual animals 301-303, 2 mg/kg
[4] = ICR mice, PO 5 mg/kg, individual animals 401-403, 5 mg/kg
[5] = male, ICR, mouse, plasma, iv, 2 mg/kg, ICR mice, IV 2 mg/kg, individual animals 301-303
[6] = male, ICR, mouse, plasma, iv, 2 mg/kg, ICR mice, IV 2 mg/kg, individual animals 301-303, read-out: AUC(0-t)
[7] = male, ICR, mouse, plasma, iv, 2 mg/kg, ICR mice, IV 2 mg/kg, individual animals 301-303, read-out: Cmax
[8] = male, ICR, mouse, plasma, iv, 2 mg/kg, ICR mice, IV 2 mg/kg, individual animals 301-303, read-out: t1/2 (converted)
[9] = male, ICR, mouse, plasma, iv, 2 mg/kg, ICR mice, IV 2 mg/kg, mean of 3 animals
[10] = male, ICR, mouse, plasma, iv, 2 mg/kg, ICR mice, IV 2 mg/kg, mean of 3 animals, read-out: AUC(0-t)
[11] = male, ICR, mouse, plasma, iv, 2 mg/kg, ICR mice, IV 2 mg/kg, mean of 3 animals, read-out: Cmax
[12] = male, ICR, mouse, plasma, iv, 2 mg/kg, ICR mice, IV 2 mg/kg, mean of 3 animals, read-out: Tmax
[13] = male, ICR, mouse, plasma, iv, 2 mg/kg, ICR mice, IV 2 mg/kg, mean of 3 animals, read-out: t1/2 (converted)
[14] = male, ICR, mouse, plasma, po, 5 mg/kg, ICR mice, PO 5 mg/kg, individual animals 401-403
[15] = male, ICR, mouse, plasma, po, 5 mg/kg, ICR mice, PO 5 mg/kg, individual animals 401-403, read-out: AUC(0-t)
[16] = male, ICR, mouse, plasma, po, 5 mg/kg, ICR mice, PO 5 mg/kg, individual animals 401-403, read-out: Tmax
[17] = male, ICR, mouse, plasma, po, 5 mg/kg, ICR mice, PO 5 mg/kg, individual animals 401-403, read-out: t1/2 (converted)
[18] = male, ICR, mouse, plasma, po, 5 mg/kg, ICR mice, PO 5 mg/kg, mean of 3 animals
[19] = male, ICR, mouse, plasma, po, 5 mg/kg, ICR mice, PO 5 mg/kg, mean of 3 animals, read-out: AUC(0-t)
[20] = male, ICR, mouse, plasma, po, 5 mg/kg, ICR mice, PO 5 mg/kg, mean of 3 animals, read-out: Cmax
[21] = male, ICR, mouse, plasma, po, 5 mg/kg, ICR mice, PO 5 mg/kg, mean of 3 animals, read-out: Tmax
[22] = male, ICR, mouse, plasma, po, 5 mg/kg, ICR mice, PO 5 mg/kg, mean of 3 animals, read-out: t1/2 (converted)
[23] = male, ICR, mouse, plasma, po, 5 mg/kg, oral intragastric administration 5 mg/kg, read-out: AUC0-t

T1 sequence (Q00987 whole entry): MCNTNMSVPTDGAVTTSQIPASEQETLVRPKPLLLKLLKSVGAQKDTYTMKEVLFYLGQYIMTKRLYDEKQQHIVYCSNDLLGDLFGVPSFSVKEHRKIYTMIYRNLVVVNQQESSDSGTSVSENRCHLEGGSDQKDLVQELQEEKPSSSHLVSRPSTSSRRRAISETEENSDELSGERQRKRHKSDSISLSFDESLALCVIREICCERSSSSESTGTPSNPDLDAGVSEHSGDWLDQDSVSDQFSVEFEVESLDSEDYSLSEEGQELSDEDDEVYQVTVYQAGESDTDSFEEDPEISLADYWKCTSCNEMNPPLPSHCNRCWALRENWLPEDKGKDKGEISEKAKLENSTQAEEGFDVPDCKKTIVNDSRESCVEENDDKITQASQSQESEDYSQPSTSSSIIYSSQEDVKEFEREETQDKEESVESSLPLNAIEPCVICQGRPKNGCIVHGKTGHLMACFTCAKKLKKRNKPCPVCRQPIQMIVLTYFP

With `CCOc1ncc(-c2nc3c(n2C(C)C)[C@@]2(C(=O)Nc4cc(Cl)ccc42)N(c2cc(Cl)cnc2C)C3=O)c(OC)n1` [Example S-134, (S)-6-chloro-5′-(5-chloro-2-methylpyridin-3-yl)-2′-(2-ethoxy-4-methoxypyrimidin-5-yl)-3′-isopropyl-3′H-spiro[dihydroindole-3,4′-pyrrolo[3,4-d]imidazole]-2,6′(5′H)-dione] the IC50 (MDM2) was 2.6 nM, the “AUC(0-t)” value [1, 3] was 7289.25 ng·h/mL and 6534.27 ng·h/mL and the “AUC(0-∞)” value [1, 3] was 7419.12 ng·h/mL and 6880.52 ng·h/mL. The CL [1, 3] was 4.49 mL/min/kg and 4.84 mL/min/kg, the Cmax [1, 3] was 4224.01 ng/mL and 3408.57 ng/mL and the “MRT(0-t)” value [1, 3] was 1.28 h and 1.50 h. For the same compound, the “MRT(0-∞)” value [1, 3] was 1.39 h and 1.83 h, the Tmax [1, 3] was 0.08 h and 0.25 h and the Vz [1, 3] was 0.42 L/kg and 0.61 L/kg. The t1/2 [1, 3] was 1.07 h and 1.47 h, the “F*” value ([1]; ICR mice) was 47.70% and the “AUC(0-t)” value [1, 4] was 7889.97 ng·h/mL and 4859.23 ng·h/mL. The “AUC(0-∞)” value [1, 4] was 8123.13 ng·h/mL and 4978.41 ng·h/mL, the Cmax [1, 4] was 3905.15 ng/mL and 3059.53 ng/mL and 1591.65 ng/mL and the “MRT(0-t)” value [1, 4] was 2.21 h. The “MRT(0-∞)” value [1, 4] was 2.28 h and 2.40 h, the Tmax [1, 4] was 0.25 h and the t1/2 [1, 4] was 1.54 h and 1.43 h. For the same compound, the AUC(0-inf) [1, 5] was 5060 ng·h/mL, the clearance [1, 5] was 6.59 mL/min/kg and the AUC(0-t) [1, 6] was 5020 ng·h/mL. The Cmax [1, 7] was 3520 ng/mL, the MRT last [1, 5] was 1.17 h and the MRT inf [1, 5] was 1.23 h. For the same compound, the Vd [1, 5] was 0.53 L/kg, the half-life [1, 8] was 0.93 h and the AUC(0-inf) [1, 9] was 6450 ng·h/mL. The clearance [1, 9] was 5.31 mL/min/kg, the AUC(0-t) [1, 10] was 6280 ng·h/mL and the Cmax [1, 11] was 3720 ng/mL. It also gave an MRT last [1, 9] of 1.32 h, an MRT inf [1, 9] of 1.48 h and a Tmax [1, 12] of 0.14 h. The Vd [1, 9] was 0.52 L/kg, the half-life [1, 13] was 1.15 h and the AUC(0-inf) [1, 14] was 9930 ng·h/mL. For the same compound, the AUC(0-t) [1, 15] was 9720 ng·h/mL, the MRT last [1, 14] was 2.04 h and the MRT inf [1, 14] was 2.21 h. The Tmax [1, 16] was 0.5 h, the half-life [1, 17] was 1.38 h and the AUC(0-inf) [1, 18] was 7680 ng·h/mL. The AUC(0-t) [1, 19] was 7490 ng·h/mL, the Cmax [1, 20] was 2850 ng/mL and the MRT last [1, 18] was 2.1 h. It also gave an MRT inf [1, 18] of 2.29 h, a Tmax [1, 21] of 0.42 h and a half-life [1, 22] of 1.45 h. It also gave an AUC(0-t) [1, 23] of 7490 ng·h/mL, a half-life ([1]; male, ICR, mouse, plasma, po, 5 mg/kg, oral intragastric administration 5 mg/kg, read-out: half-life (converted)) of 1.45 h and an IC50 [2] of 82.2 nM.

With `COc1nc(N(C)C)ncc1-c1nc2c(n1C(C)C)[C@@]1(C(=O)Nc3cc(Cl)ccc31)N(c1cc(Cl)cnc1C)C2=O` [Example S-135, (S)-6-chloro-5′-(5-chloro-2-methylpyridin-3-yl)-2′-(2-(dimethylamino)-4-methoxypyrimidin-5-yl)-3′-isopropyl-3′H-spiro[dihydroindole-3,4′-pyrrolo[3,4-d]imidazole]-2,6′(5′H)-dione] the IC50 (MDM2) was 1.36 nM, the “AUC(0-t)” value [1, 3] was 7341.09 ng·h/mL and 6495.01 ng·h/mL and the “AUC(0-∞)” value [1, 3] was 7977.92 ng·h/mL and 7378.29 ng·h/mL. The CL [1, 3] was 4.18 mL/min/kg and 4.52 mL/min/kg, the Cmax [1, 3] was 3518.53 ng/mL and 3314.60 ng/mL and the “MRT(0-t)” value [1, 3] was 1.66 h and 1.70 h. For the same compound, the “MRT(0-∞)” value [1, 3] was 2.21 h and 2.57 h, the Vz [1, 3] was 0.64 L/kg and 0.80 L/kg and the t1/2 [1, 3] was 1.78 h and 2.03 h. The “F*” value ([1]; ICR mice) was 48.91%, the “AUC(0-t)” value [1, 4] was 7012.03 ng·h/mL and 9412.84 ng·h/mL and the “AUC(0-∞)” value [1, 4] was 7126.47 ng·h/mL and 9616.11 ng·h/mL. For the same compound, the Cmax [1, 4] was 2014.04 ng/mL and 2249.28 ng/mL, the “MRT(0-t)” value [1, 4] was 2.19 h and 2.43 h and the “MRT(0-∞)” value [1, 4] was 2.32 h and 2.59 h. For the same compound, the t1/2 [1, 4] was 1.27 h and 1.34 h, the AUC(0-inf) [1, 5] was 7840 ng·h/mL and the clearance [1, 5] was 4.25 mL/min/kg. For the same compound, the AUC(0-t) [1, 6] was 7270 ng·h/mL, the Cmax [1, 7] was 3900 ng/mL and the MRT last [1, 5] was 1.6 h. For the same compound, the MRT inf [1, 5] was 2.09 h, the Tmax ([1]; male, ICR, mouse, plasma, iv, 2 mg/kg, ICR mice, IV 2 mg/kg, individual animals 301-303, read-out: Tmax) was 0.08 h and the Vd [1, 5] was 0.61 L/kg. For the same compound, the half-life [1, 8] was 1.65 h, the AUC(0-inf) [1, 9] was 7730 ng·h/mL and the clearance [1, 9] was 4.32 mL/min/kg. It also gave an AUC(0-t) [1, 10] of 7040 ng·h/mL, a Cmax [1, 11] of 3580 ng/mL and an MRT last [1, 9] of 1.65 h. It also gave an MRT inf [1, 9] of 2.29 h, a Tmax [1, 12] of 0.083 h and a Vd [1, 9] of 0.68 L/kg. For the same compound, the half-life [1, 13] was 1.82 h, the AUC(0-inf) [1, 14] was 9970 ng·h/mL and the AUC(0-t) [1, 15] was 9390 ng·h/mL. The Cmax ([1]; male, ICR, mouse, plasma, po, 5 mg/kg, ICR mice, PO 5 mg/kg, individual animals 401-403, read-out: Cmax) was 2160 ng/mL, the MRT last [1, 14] was 2.64 h and the MRT inf [1, 14] was 3.12 h. It also gave a Tmax [1, 16] of 1 h, a half-life [1, 17] of 1.87 h and an AUC(0-inf) [1, 18] of 8910 ng·h/mL. It also gave an AUC(0-t) [1, 19] of 8600 ng·h/mL, a Cmax [1, 20] of 2140 ng/mL and an MRT last [1, 18] of 2.42 h. It also gave an MRT inf [1, 18] of 2.67 h, a Tmax [1, 21] of 1 h and a half-life [1, 22] of 1.49 h. The AUC(0-t) [1, 23] was 8600 ng·h/mL and the IC50 [2] was 96.2 nM.
